# Source: patent US20030031658A1, “Targeting of endosomal growth factor processing as anti-cancer therapy” (priority 1999, published 2003)
# How the values were obtained:
# H-59 cells = assay: IGF-I induced thymidine incorporation with E-64, H-59; assay type: cell-based, murine
# MCF-7 cells = assay: IGF-I induced thymidine incorporation with E-64, MCF-7; assay type: cell-based, human
# MMP-2 = assay: IGF-1-mediated induction of MMP-2 synthesis (Northern, Western, zymography); assay type: cell-based, murine
# Text: This medium was replenished on alternate days for 12 days. […] Blots were probed with a 1:500 dilution of mAb Ab-45 to MMP-2 and an alkaline phosphatase conjugated affinity purified, goat anti rabbit IgG, diluted 1:2000. For Northern blotting, a ^32P-labeled 1.1-Kb human MMP-2 and an 800-bp rat cyclophilin cDNA fragment were used as hybridization probes.
# [1] = system: endosomal IGF-I proteolysis; assay: IGF-1 proteolysis assay, liver endosomal extract; assay type: biochemical, rat
# Method: H-59 is a highly metastatic subline of the Lewis lung carcinoma with metastatic predilection for the liver, (Brodt et al 1986). Human breast carcinoma cell line MCF-7 was a gift from Dr. Mader (Dept of Biochemistry, University of Montreal, PQ, Canada). Endosomal fractions were prepared from livers of male Sprague-Dawley rats after an 18 h period of fasting. The livers were homogenized and the endosomal fractions isolated by discontinuous sucrose gradient centrifugation and collected at the 0.25 M to 1.0 M sucrose interface (20, 21, 24). The soluble extract (ENs) from the endosomal fractions was isolated by freeze/thawing in 5 mM Na-phosphate pH 7.4, and disrupted in the same hypotonic medium using a small Dounce homogenizer (15 strokes with the tight Type A pestle) followed by centrifugation at 300,000×gav for 30 min as described previously (20, 21, 24).
# These preparations were incubated for various lengths of time at 37° C. with 10-^6 M unlabeled or 50,000 cpm [^125I]-labeled IGF-1 in 200 or 400 μl of 50 mM citrate-phosphate pH 5, respectively. The integrity of the radiolabeled ligand was assessed by precipitation with 10% trichloroacetic acid (Authier et al, 1995). […] Eluates were monitored on-line for absorbance at 214 nm with a LC spectrophotometer.
# [2] = system: IGF-I proteolysis in H-59 and MCF-7 cell lysates; assay: IGF-1 proteolysis assay, tumor cell lysates; assay type: biochemical
# Method: These preparations were incubated for various lengths of time at 37° C. with 10-^6 M unlabeled or 50,000 cpm [^125I]-labeled IGF-1 in 200 or 400 μl of 50 mM citrate-phosphate pH 5, respectively. The integrity of the radiolabeled ligand was assessed by precipitation with 10% trichloroacetic acid (Authier et al, 1995). To measure proteolysis of the unlabeled IGF-1, the samples were acidified with acetic acid (15%) and immediately loaded onto a reverse-phase HPLC column. Reverse-phase HPLC was performed on a Waters model 600 liquid chromatograph equipped with a model U6K sample injector fitted with a […] and a mBondapak C18 column (Waters, 0.39×30 cm, […]). Samples were chromatographed using as eluent a mixture of 0.1% TFA in water (solvent A) and 0.1% TFA in acetonitrile (solvent B) with a flow rate of 1 ml/min. Elution was carried out using two sequential linear gradients followed by an isocratic elution: an initial gradient of 0-20% solvent B (30 min); a second gradient of 20-39% solvent B (15 min); and a third isocratic elution of 39% solvent B (15 min). Eluates were monitored on-line for absorbance at 214 nm with a LC spectrophotometer.
# [3] = system: IGF-I binding sites on H-59 cells; assay: Ligand-binding assay of cell surface IGF-1 receptors, H-59; set-up: species or system murine
# Method: (§1) The ligand-binding assay and fluorocytometry were used to measure cell surface IGF-1 receptors on the murine H-59 and human MCF-7 cells, respectively. […] Incubation was for 1 h at 37° C. following which the cells were rinsed and lysed in 0.01 N NaOH containing 0.1% Triton X-100 and 0.1% SDS and the radioactivity measured. The number of cells/plate at the time of the assay was determined from triplicate control wells which were manipulated in a similar manner. The Ligand program (27, 28) was used to calculate the number of IGF-1 binding sites per cell. IGF-1 receptors on MCF-7 cells were immunofluorescence labeled using 5 μg/ml mAb αIR3 and an FITC-conjugated goat anti-mouse IgG (diluted 1:50). […] Labeled cells were fixed in PBS containing 1% formalin and analyzed using a FACS Calibur System (Becton-Dickinson, San Jose, Calif.).
# human IGF-I receptor = assay: Fluorocytometry of cell surface IGF-1 receptors with mAb αIR3, MCF-7; assay type: cell-based
# Method: as §1
# IGF-IR = IGF-IR mRNA and total immunoprecipitable receptor levels; assay type: cell-based; conditions: H-59 and MCF-7
# Method: (§2) Cells were then washed with PBS, solubilized in 30 mM Hepes pH 7.4, 150 mM NaCl, 1% Triton X-100, and spun at maximal speed in a microfuge for 15 min. Cell lysates (1 to 3 mg) were then immunoprecipitated respectively with anti-Shc, anti-IRS-1 or anti-IGF-IR antibodies overnight at 4° C. Immunoprecipitates were collected by addition of Protein A-Sepharose beads, washed three times with lysis buffer and resuspended finally in Laemmli sample buffer (Long et al 1986a). Immunoprecipitates were resolved by SDS-PAGE and transferred onto nitrocellulose membranes followed by immunoblotting with anti-phosphotyrosine antibodies or with antibodies to IRS-1, Shc or IGF-1R followed by HRP—conjugated goat anti-mouse or goat anti-rabbit IgG antibodies.
# [4] = system: IGF-IR β subunit and substrates; assay: Immunoprecipitation and anti-phosphotyrosine Western blot, H-59; assay type: cell-based, murine
# Method: as §2
# [5] = system: IGF-IR β subunit and substrates; assay: Immunoprecipitation and anti-phosphotyrosine Western blot, MCF-7; assay type: cell-based, human
# Method: as §2
# H-59 tumor cells = conditions: in vivo; cited from earlier work
compound,measurement,setting,value
"CC(C)C[C@H](NC(=O)[C@H]1O[C@@H]1C(=O)O)C(=O)NCCCCN=C(N)N (relative stereo) [E-64, trans-epoxysuccinyl-L-leucylamido (4-guanidino)-butane]",incorporation of 3H-thymidine in response to IGF-I,H-59 cells; H-59,completely abrogated
same,IGF-I induced proliferation,"H-59 cells; H-59, E-64 10 μg/ml",abolished
same,incorporation of 3H-thymidine in response to IGF-I,MCF-7 cells; MCF-7,completely abrogated
same,IGF-I induced proliferation,"MCF-7 cells; MCF-7, E-64 10 μg/ml",abolished
same,reduction of MMP-2 mRNA synthesis,"MMP-2; H-59, E-64 10 μg/ml",2 fold
same,MMP-2 production and activity,"MMP-2; Western blotting and gelatin zymography, E-64 10 μg/ml",decreased MMP-2 production and activity
same,increase in TCA-soluble radioactivity over time (IGF-I proteolysis),"[1]; endosomal fractions, radioiodinated IGF-I, 1 hr",completely abolished
same,IGF-I degradation products by reverse phase HPLC,"[1]; liver parenchymal endosomal fractions, acidic pH",absent following E-64 treatment
same,increase in TCA-soluble radioactivity over time (IGF-I proteolysis),"[2]; cell lysates, radioiodinated IGF-I, 1 hr",completely abolished
same,IGF-I degradation products by reverse phase HPLC,"[2]; lysates of E-64-treated tumor cells, acidic pH",absent following E-64 treatment
same,number of IGF-I binding sites,"[3]; H-59, E-64 treated (untreated 3.9×10^5)",1.8×10^5 sites/cell
same,reduction of the number of IGF-I binding sites,"[3]; H-59, E-64 treated vs untreated",more than 2 fold
same,reduction in the number of immunolabeled cells,"human IGF-I receptor; MCF-7, 40 min after addition of ligand",45%
same,mean intensity of fluorescence,"human IGF-I receptor; MCF-7, 40 min after addition of ligand (declining from 255)",82
same,IGF-IR mRNA levels,IGF-IR,In neither of these cell types did E-64 treatment cause a reduction
same,ligand-induced tyrosine phosphorylation of p52shc,[4],increase
same,tyrosine phosphorylated IRS-1,[5],increase
same,liver colonization by H-59 tumor cells,H-59 tumor cells,inhibited liver colonization
